Test results reported in patent US7211423B2 (Bristol-Myers Squibb Co., priority 2004, dated 2007).

Legend:
Rat ACC2 = settings: Trumble et al. (1995), cited from earlier work; for IC50: literature value for rat ACC2 enzyme
recombinant human ACC2 = target: T1, recombinant human ACC2 (Homo sapiens, UniProt O00763, V2141I); assay: ACC enzyme activity assay ([14C]bicarbonate fixation) with purified recombinant human ACC2; type: biochemical; settings: for Km: substrate varied, all other reagents saturating, 37° C.; for IC50: concentration dependent inhibition of recombinant human ACC2
T1 construct: To delete the NH2-terminus 148 amino acid of human ACC2; 6xHis (C); made in house; host or cells: Sf9 insect cells infected with recombinant baculovirus (pBlueBac-human-ACC2-Delta148-V5-Myc-His-WT); purified on a c-Myc-5 IgG column
Procedure: ACC enzymatic assays were carried out essentially according to Tanabe et al. (Tanabe et al., (1981) Methods Enzymol. 71 Pt C, 5–16) with modifications. […] Aliquots of 30 μl of 25 mM KH[^14C]O3 (specific activity 1.3 μCi/μmol, final KH[^14C]O3, concentration 5 mM) was then added to the mixture to initiate the reaction which was carried out for 10 min at 37° C. At the end, the reactions were quenched with 50 μl 2 N HCl and the vials were heated for 2 hours at 80° C. to remove excess bicarbonate as ^14CO2. Scintillant was then added and the acid-stable malonyl CoA remaining in the vial was counted in a scintillation counter. ACC specific activities were expressed as nmol/min/mg protein.

Rat ACC1 = Rat ACC1 (Rattus norvegicus, UniProt P11497); settings: literature value, Trumble et al. (1995); cited from earlier work

T1 sequence (O00763 149-2458 V2141I): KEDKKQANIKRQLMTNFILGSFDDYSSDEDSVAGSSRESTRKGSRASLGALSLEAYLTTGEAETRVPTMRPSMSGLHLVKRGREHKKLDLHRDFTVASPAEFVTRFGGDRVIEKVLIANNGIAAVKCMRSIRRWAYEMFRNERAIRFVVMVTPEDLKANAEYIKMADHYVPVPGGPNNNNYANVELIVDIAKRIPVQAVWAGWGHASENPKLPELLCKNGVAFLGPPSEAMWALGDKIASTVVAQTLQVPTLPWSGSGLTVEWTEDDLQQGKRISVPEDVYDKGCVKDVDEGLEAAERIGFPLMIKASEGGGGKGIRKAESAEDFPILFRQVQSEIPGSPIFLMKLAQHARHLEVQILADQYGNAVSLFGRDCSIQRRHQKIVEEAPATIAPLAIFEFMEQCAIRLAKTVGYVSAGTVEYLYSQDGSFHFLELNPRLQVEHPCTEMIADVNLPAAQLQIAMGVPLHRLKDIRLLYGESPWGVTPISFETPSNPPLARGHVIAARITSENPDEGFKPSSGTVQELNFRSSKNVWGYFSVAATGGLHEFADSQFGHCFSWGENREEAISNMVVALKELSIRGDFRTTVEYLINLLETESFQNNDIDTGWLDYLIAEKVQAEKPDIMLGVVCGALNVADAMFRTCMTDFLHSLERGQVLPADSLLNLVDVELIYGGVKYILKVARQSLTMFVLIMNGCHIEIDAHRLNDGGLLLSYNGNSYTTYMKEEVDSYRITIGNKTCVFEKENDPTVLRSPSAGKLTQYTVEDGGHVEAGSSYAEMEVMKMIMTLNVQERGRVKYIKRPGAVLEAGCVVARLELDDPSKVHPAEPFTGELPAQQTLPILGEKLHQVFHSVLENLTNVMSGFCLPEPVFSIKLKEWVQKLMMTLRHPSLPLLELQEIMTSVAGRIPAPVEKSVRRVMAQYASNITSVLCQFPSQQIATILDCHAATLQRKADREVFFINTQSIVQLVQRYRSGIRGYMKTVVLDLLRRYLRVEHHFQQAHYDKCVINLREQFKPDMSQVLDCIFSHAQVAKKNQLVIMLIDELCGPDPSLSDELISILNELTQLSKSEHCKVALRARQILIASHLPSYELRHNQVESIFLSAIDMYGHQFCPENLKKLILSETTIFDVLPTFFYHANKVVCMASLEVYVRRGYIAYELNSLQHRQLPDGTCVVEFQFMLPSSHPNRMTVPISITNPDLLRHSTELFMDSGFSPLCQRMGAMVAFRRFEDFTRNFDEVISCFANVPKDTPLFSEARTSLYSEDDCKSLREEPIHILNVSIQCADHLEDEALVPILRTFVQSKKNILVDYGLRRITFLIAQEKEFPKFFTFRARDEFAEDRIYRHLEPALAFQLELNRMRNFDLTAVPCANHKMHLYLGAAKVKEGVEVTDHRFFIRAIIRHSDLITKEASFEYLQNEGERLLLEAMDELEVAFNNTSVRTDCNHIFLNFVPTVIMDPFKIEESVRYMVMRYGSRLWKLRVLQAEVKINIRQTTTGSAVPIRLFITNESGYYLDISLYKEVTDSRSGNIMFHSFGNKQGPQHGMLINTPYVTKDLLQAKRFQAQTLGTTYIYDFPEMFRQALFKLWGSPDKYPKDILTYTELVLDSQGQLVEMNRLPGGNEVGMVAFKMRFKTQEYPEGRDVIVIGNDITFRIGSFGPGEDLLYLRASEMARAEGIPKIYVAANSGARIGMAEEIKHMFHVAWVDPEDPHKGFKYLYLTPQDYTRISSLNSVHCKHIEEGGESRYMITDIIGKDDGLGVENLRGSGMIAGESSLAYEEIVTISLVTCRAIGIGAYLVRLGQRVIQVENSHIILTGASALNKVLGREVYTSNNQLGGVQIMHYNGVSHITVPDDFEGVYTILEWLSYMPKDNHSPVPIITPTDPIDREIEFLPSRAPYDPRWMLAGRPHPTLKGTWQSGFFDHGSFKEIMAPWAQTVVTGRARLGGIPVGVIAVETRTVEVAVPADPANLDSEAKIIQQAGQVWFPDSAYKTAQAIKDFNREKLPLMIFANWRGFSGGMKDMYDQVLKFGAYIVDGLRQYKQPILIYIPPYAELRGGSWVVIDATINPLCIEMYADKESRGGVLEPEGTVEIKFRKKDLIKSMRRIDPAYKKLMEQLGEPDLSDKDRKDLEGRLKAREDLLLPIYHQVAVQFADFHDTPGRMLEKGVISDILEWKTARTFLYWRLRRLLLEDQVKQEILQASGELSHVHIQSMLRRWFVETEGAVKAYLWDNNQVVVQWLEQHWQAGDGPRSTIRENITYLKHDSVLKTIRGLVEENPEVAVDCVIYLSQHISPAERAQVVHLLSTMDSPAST

SMILES | IC50 (recombinant human ACC2) [µM] | Km (Rat ACC2; literature value) [µM] | Km (recombinant human ACC2) [mM] | Km (Rat ACC1) [µM] | IC50 (Rat ACC2) [µM] | other results
Nc1ncnc2c1ncn2[C@@H]1O[C@H](COP(=O)(O)OP(=O)(O)OP(=O)(O)O)[C@@H](O)[C@H]1O [ATP] | – | 58 | 0.27 | 110 | – | –
CC(=O)SCCNC(=O)CCNC(=O)[C@H](O)C(C)(C)COP(=O)(O)OP(=O)(O)OC[C@H]1O[C@@H](n2cnc3c(N)ncnc32)[C@H](O)[C@@H]1OP(=O)(O)O [Acetyl CoA, acetyl CoA] | – | 32 | – | 22 | – | –
O=C(O)O [HCO3^−, bicarbonate] | – | 2300 | 5 | 2700 | – | –
O=C(O)CC(O)(CC(=O)O)C(=O)O [Citrate] | – | – | – | – | – | Kact (Rat ACC2; literature value): 2.1 mM; Kact (Rat ACC1): 3 mM

Continued, in another order:

IC50 (recombinant human ACC2) [µM] | SMILES | Km (Rat ACC2; literature value) [µM] | Km (recombinant human ACC2) [mM] | Km (Rat ACC1) [µM] | IC50 (Rat ACC2) [µM] | other results
26.7 | CC(C)(COP(=O)(O)OP(=O)(O)OC[C@H]1O[C@@H](n2cnc3c(N)ncnc32)[C@H](O)[C@@H]1OP(=O)(O)O)[C@@H](O)C(=O)NCCC(=O)NCCSC(=O)CC(=O)O [malonyl CoA] | – | – | – | 10.6 | –
4.4 | CCCCCCCCCCCCCCCC(=O)SCCNC(=O)CCNC(=O)[C@H](O)C(C)(C)COP(=O)(O)OP(=O)(O)OC[C@H]1O[C@@H](n2cnc3c(N)ncnc32)[C@H](O)[C@@H]1OP(=O)(O)O [palmitoyl CoA] | – | – | – | 2.2 | –
